From ChEMBL document CHEMBL3877319, “Synthesis of Ofornine mimics from natural product l-vasicine as anti-hypertensive agents” (Bioorg Med Chem, 2017)

Tests used:
Type in all cases: functional
[1] = system: Rattus norvegicus; test: Anti-hypertensive activity in Wistar rat assessed as systolic blood pressure at 10 mg/kg, iv after 5 mins (reference value: 110 to 124.6 mmHg)
[2] = system: Rattus norvegicus; test: Anti-hypertensive activity in Wistar rat assessed as diastolic blood pressure at 10 mg/kg, iv after 5 mins (reference value: 77.15 to 94.4 mmHg)
[3] = system: Rattus norvegicus; test: Anti-hypertensive activity in Wistar rat assessed as systolic blood pressure at 10 mg/kg, iv after 15 mins (reference value: 110 to 124.6 mmHg)
[4] = system: Rattus norvegicus; test: Anti-hypertensive activity in Wistar rat assessed as diastolic blood pressure at 10 mg/kg, iv after 15 mins (reference value: 77.15 to 94.4 mmHg)
[5] = system: Rattus norvegicus; test: Anti-hypertensive activity in Wistar rat assessed as systolic blood pressure at 10 mg/kg, iv after 30 mins (reference value: 110 to 124.6 mmHg)
[6] = system: Rattus norvegicus; test: Anti-hypertensive activity in Wistar rat assessed as diastolic blood pressure at 10 mg/kg, iv after 30 mins (reference value: 77.15 to 94.4 mmHg)
[7] = system: Rattus norvegicus; test: Anti-hypertensive activity in Wistar rat assessed as systolic blood pressure at 10 mg/kg, iv after 60 mins (reference value: 110 to 124.6 mmHg)
[8] = system: Rattus norvegicus; test: Anti-hypertensive activity in Wistar rat assessed as diastolic blood pressure at 10 mg/kg, iv after 60 mins (reference value: 77.15 to 94.4 mmHg)
[9] = system: Rattus norvegicus; test: Anti-hypertensive activity in Wistar rat assessed as systolic blood pressure at 10 mg/kg, iv after 120 mins (reference value: 110 to 124.6 mmHg)
[10] = system: Rattus norvegicus; test: Anti-hypertensive activity in Wistar rat assessed as diastolic blood pressure at 10 mg/kg, iv after 120 mins (reference value: 77.15 to 94.4 mmHg)
[11] = system: Rattus norvegicus; test: Anti-hypertensive activity in Wistar rat assessed as systolic blood pressure at 10 mg/kg, iv after 150 mins (reference value: 110 to 124.6 mmHg)
[12] = system: Rattus norvegicus; test: Anti-hypertensive activity in Wistar rat assessed as diastolic blood pressure at 10 mg/kg, iv after 150 mins (reference value: 77.15 to 94.4 mmHg)
[13] = system: Rattus norvegicus; test: Anti-hypertensive activity in Wistar rat assessed as systolic blood pressure at 10 mg/kg, iv after 180 mins (reference value: 110 to 124.6 mmHg)
[14] = system: Rattus norvegicus; test: Anti-hypertensive activity in Wistar rat assessed as diastolic blood pressure at 10 mg/kg, iv after 180 mins (reference value: 77.15 to 94.4 mmHg)

Structure (SMILES) | Activity [1] [mmHg] | Activity [2] [mmHg] | Activity [3] [mmHg] | Activity [4] [mmHg] | Activity [5] [mmHg] | Activity [6] [mmHg] | Activity [7] [mmHg] | Activity [8] [mmHg] | Activity [9] [mmHg] | Activity [10] [mmHg] | Activity [11] [mmHg] | Activity [12] [mmHg] | Activity [13] [mmHg] | Activity [14] [mmHg]
CCCCCCc1ccc(-c2cn([C@@H]3CCN(C(=O)c4ccccc4Nc4ccncc4)C3)nn2)cc1 | 94.4 | 74.8 | 104.9 | 81.7 | 111.6 | 83.6 | 111.9 | 83.25 | 118.9 | 91.75 | 118.7 | 92.8 | 119.9 | 91
O=C(c1ccccc1Nc1ccncc1)N1CC[C@@H](n2cc(-c3ccccc3)nn2)C1 | 85.3 | 58.7 | 94.3 | 65.5 | 100.7 | 70.2 | 109.8 | 72.2 | 116.2 | 80 | 120.8 | 80.15 | 121.2 | 86.75
O=C(c1ccccc1-n1cc(C2CC2)nn1)N1CC[C@@H](O)C1 | 113.8 | 79.6 | 114.91 | 90.7 | 118.1 | 84.35 | 120 | 82.75 | 120.4 | 83.3 | 121.7 | 84.3 | 123.7 | 86.6
O=C(c1ccccc1Nc1ccncc1)N1CC[C@@H](n2cc(-c3ccc(F)cc3)nn2)C1 | 46.6 | 42.9 | 106.2 | 73.8 | 108.6 | 84.63 | 117.6 | 84.8 | 122.6 | 86.3 | 124.6 | 90.3 | 128.9 | 90.58
O[C@@H]1CCN(Cc2ccccc2)C1 | 107.9 | 52.65 | 116.4 | 57.86 | 119.3 | 70.89 | 121.4 | 77.25 | 112.3 | 74.19 | 114.6 | 78.62 | 118.9 | 83.15
CCCCCc1ccc(-c2cn([C@@H]3CCN(C(=O)c4ccccc4Nc4ccncc4)C3)nn2)cc1 | 86.15 | 59.8 | 97 | 67.75 | 108.4 | 79.7 | 111.6 | 81.4 | 115.6 | 80.3 |  | 77.3 | 115.3 | 
CCCc1cn([C@@H]2CCN(C(=O)c3ccccc3Nc3ccncc3)C2)nn1 | 82.7 | 44.5 | 86.8 | 53.4 | 118.8 | 78.5 | 114.8 | 83.7 | 118.1 | 82.7 | 119.9 | 81.5 | 118.8 | 84.5
C[Si](C)(C)O[C@@H]1CCNC1 | 119.9 | 84.74 | 119.7 | 85.42 | 119.9 | 87.98 | 117.6 | 83.9 | 118.5 | 89.49 | 122.4 | 88.4 | 121.6 | 84.75
[N-]=[N+]=N[C@@H]1CCN(C(=O)c2ccccc2Nc2ccncc2)C1 | 86.15 | 59.8 | 97 | 67.75 | 108.4 | 79.7 | 111.6 | 81.4 | 115.6 | 80.3 |  | 77.3 | 115.3 | 
CCCCCc1cn([C@@H]2CCN(C(=O)c3ccccc3Nc3ccncc3)C2)nn1 | 96.7 | 73.2 | 101.7 | 80.5 | 103.8 | 77.6 | 105.4 | 80.2 | 109.8 | 80.5 | 114.9 | 81.9 | 117.6 | 85.4
O[C@H]1CCN(Cc2ccccc2Nc2ccncc2)C1 | 120.4 | 77.06 | 119.9 | 73.74 | 120.6 | 75.5 | 115.7 | 81.18 | 118.2 | 75.97 | 122.9 | 76.6 | 124.4 | 83.32
O=C(c1ccccc1-n1cc(-c2ccc(-c3ccccc3)cc2)nn1)N1CC[C@@H](O)C1 | 112 | 82 | 113 | 82 | 106.9 | 79.1 | 110.1 | 86.8 | 107.3 | 87.8 | 116.3 | 81.3 | 109.6 | 78.3
Nc1ccccc1C(=O)N1CCC(O)C1 (single isomer, unassigned) | 107.8 | 80.42 | 123.4 | 86.88 | 124.3 | 82.62 | 119.5 | 82.62 | 118.8 | 79.57 | 121.4 | 79.95 | 123.1 | 86.45
O=C(c1ccccc1Nc1ccncc1)N1CC[C@@H](n2cc(C3CC3)nn2)C1 | 116.4 | 77.08 | 115.1 | 79.63 | 112.2 | 76.29 | 108.2 | 73.85 | 111.6 | 86.96 | 110.4 | 85.74 | 117.2 | 86.32
O=C(c1ccccc1Nc1ccncc1)N1CCCCC1 [OFORNINE] | 83.3 | 53.3 | 89.45 | 61 | 89.5 | 62.8 | 88.6 | 64.05 | 90.5 | 64.5 | 113.8 | 77.9 | 117 | 90.8
O=C(c1ccccc1-n1cc(-c2ccc(F)cc2)nn1)N1CC[C@@H](O)C1 | 103.3 | 76.5 | 120.1 | 74.8 | 118.9 | 77.9 | 122.4 | 95 | 121.6 | 88 | 121.8 | 88.8 | 121.5 | 90.8
